This is an account of results in patent publication US20090197880A1 (Genelabs Technologies, Inc., priority 2007, published 2009).

The first experiment is described as follows: HCV replicon assay (luciferase) in ET (Huh-lucubineo-ET) cell line. The settings on record: Hepatitis C virus; tested at 5 μM; inhibition of replication relative to no compound control; ET replicon cells, luciferase 48-72 hours. Type of experiment: cell-based. (Replicon systems follow genome replication, usually without infectious particles.)
Compound `Fc1ccc(-c2cc(Cn3cc4nc(-c5cccc(F)c5F)nc-4cn3)on2)c(C(F)(F)F)c1` [Compound 101, 2-(2,3-Difluoro-phenyl)-5-[3-(4-fluoro-2-trifluoromethyl-phenyl)-isoxazol-5-ylmethyl]-5H-imidazo[4,5-d]pyridazine] came in with an inhibition at 5 µM of 80.3%.

Staying with this experiment, now noted: Hepatitis C virus; tested at 10 μM; inhibition of replication relative to no compound control; ET replicon cells, luciferase 48-72 hours; read-out: % inhition at 10 μM.
Turning to `Cc1cc(C#Cc2ccc(-c3cc(Cn4cc5nc(-c6cccc(F)c6F)nc-5cn4)on3)cc2)cc(C)n1` [Compound 310, 2-(2,3-Difluoro-phenyl)-5-{3-[4-(2,6-dimethyl-pyridin-4-ylethynyl)-phenyl]-isoxazol-5-ylmethyl}-5H-imidazo[4,5-d]pyridazine], the inhibition at 10 µM amounted to 99.4%.

Take `Cc1nc(-c2cc(Cn3cc4nc(-c5cccc(F)c5F)nc-4cn3)on2)c(C)o1` [Compound 185, 2-(2,3-Difluoro-phenyl)-5-[3-(2,5-dimethyl-oxazol-4-yl)-isoxazol-5-ylmethyl]-5H-imidazo[4,5-d]pyridazine]: the inhibition at 10 µM amounted to 47.8%.

As for `FC(F)(F)c1ccc(-c2cc(Cn3cc4nc(N5Cc6ccccc6C5)nc-4cn3)on2)c(C(F)(F)F)c1` [Compound 261, 5-[3-(2,4-Bis-trifluoromethyl-phenyl)-isoxazol-5-ylmethyl]-2-(1,3-dihydro-isoindol-2-yl)-5H-imidazo[4,5-d]pyridazine], the inhibition at 10 µM came out at 73.9%. `O=C(COc1ccc(-c2cc(Cn3cc4nc(-c5cccc(F)c5F)nc-4cn3)on2)c(C(F)(F)F)c1)N1CCCCC1` [Compound 325, 2-(4-{5-[2-(2,3-Difluoro-phenyl)-imidazo[4,5-d]pyridazin-5-ylmethyl]-isoxazol-3-yl}-3-trifluoromethyl-phenoxy)-1-piperidin-1-yl-ethanone]: the inhibition at 10 µM came out at 8.2%. As for `Fc1cccc(-c2nc3cnn(Cc4cc(-c5ccc(OCCN6CCOCC6)cc5)no4)cc-3n2)c1F` [Compound 196, 2-(2,3-Difluoro-phenyl)-5-{3-[4-(2-morpholin-4-yl-ethoxy)-phenyl]-isoxazol-5-ylmethyl}-5H-imidazo[4,5-d]pyridazine], the inhibition at 10 µM turned out to be 89%.

With `Fc1ccc(-c2cc(Cn3cc4nc(-c5cccc(F)c5F)nc-4cn3)on2)c(C(F)(F)F)c1` [Compound 101, 2-(2,3-Difluoro-phenyl)-5-[3-(4-fluoro-2-trifluoromethyl-phenyl)-isoxazol-5-ylmethyl]-5H-imidazo[4,5-d]pyridazine], the inhibition at 10 µM was 92.9%. Take `Fc1cccc(-c2nc3cnn(Cc4cc(-c5ccc(C#CC6CCCC6)cc5)no4)cc-3n2)c1F` [Compound 335, 5-[3-(4-Cyclopentylethynyl-phenyl)-isoxazol-5-ylmethyl]-2-(2,3-difluoro-phenyl)-5H-imidazo[4,5-d]pyridazine]: the inhibition at 10 µM stood at 96.7%. On to `Fc1cccc(-c2nc3cnn(Cc4cc(-c5ccc(CCCC(F)(F)F)cc5)no4)cc-3n2)c1F` [Compound 330, 2-(2,3-Difluoro-phenyl)-5-{3-[4-(4,4,4-trifluoro-butyl)-phenyl]-isoxazol-5-ylmethyl}-5H-imidazo[4,5-d]pyridazine], for which the inhibition at 10 µM was found to be 99.7%.

Consider `Fc1cccc(-c2nc3cnn(Cc4cc(-c5ccc(CN6CCCC6)cc5)no4)cc-3n2)c1F` [Compound 219, 2-(2,3-Difluoro-phenyl)-5-[3-(4-pyrrolidin-1-ylmethyl-phenyl)-isoxazol-5-ylmethyl]-5H-imidazo[4,5-d]pyridazine], for which the inhibition at 10 µM worked out at 35%. On the same count and under the same terms, the same measure for `CCCCc1ccc(-c2cc(Cn3cc4nc(-c5ccccc5F)nc-4cn3)on2)cc1` [Compound 277, 5-[3-(4-Butyl-phenyl)-isoxazol-5-ylmethyl]-2-(2-fluoro-phenyl)-5H-imidazo[4,5-d]pyridazine]: 99.9%; for `COCCOc1ccc(-c2cc(Cn3cc4nc(-c5cccc(F)c5F)nc-4cn3)on2)cc1` [Compound 195]: 98.8%; for `Fc1cccc(-c2nc3cnn(Cc4cc(-c5ccc(OC(F)F)cc5)no4)cc-3n2)c1F` [Compound 176, 5-[3-(4-Difluoromethoxy-phenyl)-isoxazol-5-ylmethyl]-2-(2,3-difluoro-phenyl)-5H-imidazo[4,5-d]pyridazine]: 99.8%.
